One test deals with M^pro. Particulars: read-out: Activity: IC50; cited from earlier work.
A further test has as its system wild type SARS-CoV-2. The experiment in a line: microbe, parasite or virus in culture. Particulars: mean ± sd. Type of test: cell-based.
The next test relates to SARS-CoV-2. Particulars: cited from earlier work.

Broadly, the IC50 is the midpoint of a concentration-inhibition curve. On to `CC(C)(C)NC(=O)[C@@H](c1cccnc1)N(C(=O)c1ccco1)c1ccc(C(C)(C)C)cc1` [0EN], for which the IC50 in the test with M^pro is 4800 nM.

As for `CCOC(=O)CC[C@H](C[C@@H]1CCNC1=O)NC(=O)[C@H](CC=C(C)C)CC(=O)[C@@H](NC(=O)[C@H](CO)NC(=O)OC(C)(C)C)C(C)C` [CYV], the IC50 in the test with M^pro is 80000 nM.

Regarding `Cc1cc(S(=O)(=O)c2c([N+](=O)[O-])cc(C(F)(F)F)cc2[N+](=O)[O-])c(Cl)cc1Cl` [D3F], the 50% inhibitory concentration (IC50) in the test with M^pro is 300 nM.

As for `O=C(Sc1n[nH]c(C(F)(F)F)n1)c1ccc(C#Cc2ccccc2)o1` [F3F], the 50% inhibitory concentration (IC50) with M^pro was 3000 nM.

What is called EC50 is the concentration at which the effect is half-maximal. A low value points to higher potency in that assay. As to `CCC(CC)COC(=O)[C@H](C)N[P@](=O)(OC[C@H]1O[C@@](C#N)(c2ccc3c(N)ncnn23)[C@H](O)[C@@H]1O)Oc1ccccc1` [Remdesivir], the EC50 in the test with wild type SARS-CoV-2 (Severe acute respiratory syndrome coronavirus 2, Vero C1008, Vero E6 cells) stood at 1010 ± 130 nM; with wild type SARS-CoV-2 (Severe acute respiratory syndrome coronavirus 2, Calu-3 cells), 1110 ± 170 nM. The “reduction of recovery time” value in the test on SARS-CoV-2 (hospitalized adults) is 5 days.

For `CC(C)C(=O)OC[C@H]1O[C@@H](n2ccc(NO)nc2=O)[C@H](O)[C@@H]1O` [molnupiravir], the “decrease of the risk of hospitalization or death” value with SARS-CoV-2 (MOVe-OUT, non-hospitalized patients) is 48%.

In the case of `CC(C)(C)[C@H](NC(=O)C(F)(F)F)C(=O)N1C[C@H]2[C@@H]([C@H]1C(=O)N[C@H](C#N)C[C@@H]1CCNC1=O)C2(C)C` [nirmatrelvir], the “decrease of the probability of hospitalization or mortality” value in the test with SARS-CoV-2 (EPIC-HR, non-hospitalized adults at high risk) was 89%. Besides, the “rate of hospitalization owing to COVID-19 among treated patients” value in the test with SARS-CoV-2 (patients aged 40 to 64 years, Israel, omicron, untreated 15.8) is 15.2 instances per 100,000 person-days.

The values are drawn from publication PMC10123561 (Signal Transduction and Targeted Therapy, 2023).
